# Test results published in patent US7138361B2, “Herbicidal heterocycles” (E. I. du Pont de Nemours and Company, priority 2000, dated 2006).
# Tests used:
# Format in all cases: in vivo
# [1] = test system: common ragweed (Ambrosia elatior); assay: Test C preemergence; conditions: for Plant response rating, Ragweed, Common: scale 0 to 100, 0 no effect, 100 complete control
# How it was run: (§1)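 Visual injury scores of 0–100, with 100 meaning complete control, were given relative to controls after 12–14 days in the greenhouse. Treatments used a surfactant-containing non-phytotoxic solvent formulation, sprayed on seeded pots preemergence or on 1–4-leaf plants of 2–18 cm postemergence.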
# [2] = test system: cocklebur (Xanthium strumarium); assay: Test C preemergence; conditions: for Plant response rating, Cocklebur: scale 0 to 100, 0 no effect, 100 complete control; for Plant response rating (0 to 100), Cocklebur: preemergence, visual evaluation after 12 to 14 days
# How it was run: as §1
# [3] = test system: giant foxtail (Setaria faberii); assay: Test C preemergence; conditions: for Plant response rating, Foxtail, Giant: scale 0 to 100, 0 no effect, 100 complete control; for Plant response rating (0 to 100), Foxtail, Giant: preemergence, visual evaluation after 12 to 14 days
# How it was run: as §1
# [4] = test system: crabgrass (Digitaria sanguinalis); assay: Test C preemergence; conditions: for Plant response rating, Crabgrass: scale 0 to 100, 0 no effect, 100 complete control; for Plant response rating (0 to 100), Crabgrass: preemergence, visual evaluation after 12 to 14 days
# How it was run: as §1
# [5] = test system: morningglory (Ipomoea hederacea); assay: Test C preemergence; conditions: for Plant response rating, Morningglory: scale 0 to 100, 0 no effect, 100 complete control
# How it was run: as §1
# [6] = test system: goosegrass (Eleusine indica); assay: Test C preemergence; conditions: for Plant response rating, Goosegrass: scale 0 to 100, 0 no effect, 100 complete control; for Plant response rating (0 to 100), Goosegrass: preemergence, visual evaluation after 12 to 14 days
# How it was run: as §1
# [7] = test system: Surinam grass (Brachiaria decumbens); assay: Test C preemergence; conditions: for Plant response rating, Surinam grass: scale 0 to 100, 0 no effect, 100 complete control; for Plant response rating (0 to 100), Surinam grass: preemergence, visual evaluation after 12 to 14 days
# How it was run: as §1
# [8] = test system: velvetleaf (Abutilon theophrasti); assay: Test C preemergence; conditions: for Plant response rating, Velvetleaf: scale 0 to 100, 0 no effect, 100 complete control
# How it was run: as §1
# [9] = test system: bermudagrass (Cynodon dactylon); assay: Test C preemergence; conditions: for Plant response rating, Bermudagrass: scale 0 to 100, 0 no effect, 100 complete control; for Plant response rating (0 to 100 where 0 is no effect and 100 is complete control), Bermudagrass: preemergence, visual evaluation after 12 to 14 days
# How it was run: as §1
# Sunflower [10] = assay: Test C preemergence; conditions: Rate 125 g/ha; scale 0 to 100, 0 no effect, 100 complete control
# rice (Oryza saliva) = assay: Test B preemergence
# How it was run: (§2)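 Ratings on a 0 to 100 visual scale (100 complete control) compare treated plants with controls 13 to 15 days after application. Treatments were pre- or postemergence sprays of compound in non-phytotoxic solvent with surfactant.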
# [11] = test system: morning glory (Ipomoea hederacea); assay: Test B preemergence
# How it was run: as §2
# [12] = test system: cocklebur (Xanthium strumarium); assay: Test B preemergence
# How it was run: as §2
# [13] = test system: giant foxtail (Setaria faberii); assay: Test B preemergence
# How it was run: as §2
# corn (Zea mays) = assay: Test B preemergence
# How it was run: as §2
# [14] = test system: crabgrass (Digitaria sanguinalis); assay: Test B preemergence
# How it was run: as §2
# [15] = test system: Surinam grass (Brachiaria decumbens); assay: Test B preemergence
# How it was run: as §2
# [16] = test system: lambsquarters (Chenopodium album); assay: Test B preemergence
# How it was run: as §2
# [17] = test system: pigweed (Amaranthus retroflexus); assay: Test B preemergence
# How it was run: as §2
# [18] = test system: velvetleaf (Abutilon theophrasti); assay: Test B preemergence
# How it was run: as §2
# [19] = test system: barnyardgrass (Echinochloa crus-galli); assay: Test B preemergence
# How it was run: as §2
# Sunflower [20] = assay: Test C preemergence; conditions: Rate 500 g/ha, visual evaluation after 12 to 14 days
# [21] = preemergence, Rate 500 g/ha, visual evaluation after 12 to 14 days
# [22] = Preemergence, Rate 500 g/ha, scale 0 to 100, 0 no effect, 100 complete control
# [23] = preemergence, Rate 125 g/ha, scale of 0 to 100 where 0 is no effect and 100 is complete control, 13 to 15 days
smiles,measurement,setting,value
Cc1ccc(N2CCC(n3ccc(C(C)(C)C)n3)C2=O)cc1OC(F)F (stereo not shown) [Compound 79],"Plant response rating, Ragweed, Common",[1]; Rate 125 g/ha,100
same,"Plant response rating (0 to 100), Ragweed, Common",[1]; [21],100
same,"Plant response rating, Ragweed, Common","[1]; preemergence, Rate 250 g/ha",100
same,"Plant response rating, Cocklebur",[2]; Rate 62 g/ha,0
same,"Plant response rating, Cocklebur",[2]; Rate 125 g/ha,0
same,"Plant response rating (0 to 100), Cocklebur",[2]; Rate 250 g/ha,0
same,"Plant response rating (0 to 100), Cocklebur",[2]; Rate 500 g/ha,30
same,"Plant response rating, Foxtail, Giant",[3]; Rate 62 g/ha,0
same,"Plant response rating, Foxtail, Giant",[3]; Rate 125 g/ha,0
same,"Plant response rating (0 to 100), Foxtail, Giant",[3]; Rate 250 g/ha,0
same,"Plant response rating (0 to 100), Foxtail, Giant",[3]; Rate 500 g/ha,0
same,"Plant response rating, Crabgrass",[4]; Rate 62 g/ha,100
same,"Plant response rating, Crabgrass",[4]; Rate 125 g/ha,100
same,"Plant response rating (0 to 100), Crabgrass",[4]; Rate 250 g/ha,100
same,"Plant response rating (0 to 100), Crabgrass",[4]; Rate 500 g/ha,100
same,"Plant response rating, Morningglory",[5]; Rate 62 g/ha,0
same,"Plant response rating, Morningglory",[5]; Rate 125 g/ha,0
same,"Plant response rating (0 to 100), Morningglory",[5]; [21],70
same,"Plant response rating, Morningglory","[5]; preemergence, Rate 250 g/ha",30
same,"Plant response rating, Goosegrass",[6]; Rate 62 g/ha,80
same,"Plant response rating, Goosegrass",[6]; Rate 125 g/ha,90
same,"Plant response rating (0 to 100), Goosegrass",[6]; Rate 250 g/ha,100
same,"Plant response rating (0 to 100), Goosegrass",[6]; Rate 500 g/ha,100
same,"Plant response rating, Surinam grass",[7]; Rate 62 g/ha,0
same,"Plant response rating, Surinam grass",[7]; Rate 125 g/ha,20
same,"Plant response rating (0 to 100), Surinam grass",[7]; Rate 250 g/ha,60
same,"Plant response rating (0 to 100), Surinam grass",[7]; Rate 500 g/ha,100
same,"Plant response rating, Velvetleaf",[8]; Rate 125 g/ha,0
same,"Plant response rating (0 to 100), Velvetleaf",[8]; [21],50
same,"Plant response rating, Velvetleaf","[8]; preemergence, Rate 250 g/ha",20
same,"Plant response rating, Bermudagrass",[9]; Rate 62 g/ha,100
same,"Plant response rating, Bermudagrass",[9]; Rate 125 g/ha,100
same,"Plant response rating (0 to 100 where 0 is no effect and 100 is complete control), Bermudagrass",[9]; Rate 250 g/ha,100
same,"Plant response rating (0 to 100 where 0 is no effect and 100 is complete control), Bermudagrass",[9]; Rate 500 g/ha,100
same,"Plant response rating, Sunflower",Sunflower [10],0
same,"Plant response rating, Rice",rice (Oryza saliva); [22],90
same,"Plant response rating, Rice",rice (Oryza saliva); [23],50
same,"Plant response rating, Morningglory",[11]; [22],100
same,"Plant response rating, Morningglory",[11]; [23],0
same,"Plant response rating, Cocklebur",[12]; [22],0
same,"Plant response rating, Cocklebur",[12]; [23],0
same,"Plant response rating, Foxtail, Giant",[13]; [22],60
same,"Plant response rating, Foxtail, Giant",[13]; [23],0
same,"Plant response rating, Corn",corn (Zea mays); [22],0
same,"Plant response rating, Corn",corn (Zea mays); [23],0
same,"Plant response rating, Crabgrass",[14]; [22],100
same,"Plant response rating, Crabgrass",[14]; [23],100
same,"Plant response rating, Surinam grass",[15]; [22],90
same,"Plant response rating, Surinam grass",[15]; [23],70
same,"Plant response rating, Lambsquarters",[16]; [22],100
same,"Plant response rating, Lambsquarters",[16]; [23],100
same,"Plant response rating, Pigweed",[17]; [22],100
same,"Plant response rating, Pigweed",[17]; [23],100
same,"Plant response rating, Velvetleaf",[18]; [22],90
same,"Plant response rating, Velvetleaf",[18]; [23],0
same,"Plant response rating, Barnyardgrass",[19]; [22],100
same,"Plant response rating, Barnyardgrass",[19]; [23],70
same,"Plant response rating (0 to 100), Sunflower",Sunflower [20],60
